# Values of other authors, collected in patent US8740762B2, “Specific inhibition of cPLA2 enhances the efficacy of radiotherapy” (Vanderbilt University, priority 2007, dated 2014).
# Assays:
# pro-survival kinases = settings: 20 μM
substance,measurement,setting,value
lysophosphatidylcholine [LPC],activation of pro-survival kinases,pro-survival kinases,activated the same pro-survival kinases
same,cell death,HUVEC; concentrations higher than 25 μM,promote cell death
same,proliferation of HUVEC,HUVEC; up to 25 μM,increase proliferation
